Experimental data as given in patent publication US9273057B2 (Bristol-Myers Squibb Company, priority 2012, dated 2016).

The molecules below were run against CK2A1 (CK2α/β) (Homo sapiens, UniProt P68400) (assay: CK2 kinase assay, CK2A1 (CK2α/β)). Conditions: Table A; read-out: CK2A1 (CK2α/β) (IC50).
Format: biochemical

Sequence of CK2A1 (CK2α/β) (P68400 whole entry, species assumed): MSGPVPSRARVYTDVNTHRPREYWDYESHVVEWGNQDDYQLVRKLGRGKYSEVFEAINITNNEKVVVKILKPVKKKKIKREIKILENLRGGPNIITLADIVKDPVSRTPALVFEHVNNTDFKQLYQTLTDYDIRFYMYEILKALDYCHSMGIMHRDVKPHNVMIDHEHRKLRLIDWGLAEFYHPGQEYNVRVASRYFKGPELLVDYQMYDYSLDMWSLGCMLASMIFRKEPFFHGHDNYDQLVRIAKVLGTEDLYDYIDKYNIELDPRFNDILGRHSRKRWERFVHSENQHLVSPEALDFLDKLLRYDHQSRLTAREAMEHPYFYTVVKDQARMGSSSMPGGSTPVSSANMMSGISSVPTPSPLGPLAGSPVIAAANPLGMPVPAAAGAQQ
Sequence of CK2A1 (CK2α/β) (P67870 whole entry partner, species assumed): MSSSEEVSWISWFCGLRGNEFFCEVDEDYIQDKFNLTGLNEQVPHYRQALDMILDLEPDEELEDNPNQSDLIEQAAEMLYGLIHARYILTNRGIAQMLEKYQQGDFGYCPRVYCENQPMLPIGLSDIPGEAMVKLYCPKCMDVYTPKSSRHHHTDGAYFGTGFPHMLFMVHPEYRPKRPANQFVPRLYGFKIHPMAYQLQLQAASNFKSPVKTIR

Structure (SMILES)	IC50
CS(=O)(=O)CC(=O)N1CC(N2CCN(c3cc(C#N)cc(Nc4nc(NC5CC5)c5ncc(C#N)n5n4)c3Cl)CC2)C1 [Example 486, 2-[(2-chloro-5-cyano-3-{4-[1-(2-methanesulfonylacetyl)azetidin-3-yl]piperazin-1-yl}phenyl)amino]-4-(cyclopropylamino)imidazo[2,1-f][1,2,4]triazine-7-carbonitrile]	1.61 nM
CC(O)C(=O)N1CC(N2CCN(c3cc(C#N)cc(Nc4nc(NC5CC5)c5ncc(C#N)n5n4)c3Cl)CC2)C1 (stereo not drawn) [Example 487, 2-[(2-chloro-5-cyano-3-{4-[1-(2-hydroxypropanoyl)azetidin-3-yl]piperazin-1-yl}phenyl)amino]-4-(cyclopropylamino)imidazo[2,1-f][1,2,4]triazine-7-carbonitrile]	0.73 nM
N#Cc1cc(Nc2nc(NC3CC3)c3ncc(C#N)n3n2)c(Cl)c(N2CCN(C3CN(C(=O)CO)C3)CC2)c1 [Example 488, 2-[(2-chloro-5-cyano-3-{4-[1-(2-hydroxyacetyl)azetidin-3-yl]piperazin-1-yl}phenyl)amino]-4-(cyclopropylamino)imidazo[2,1-f][1,2,4]triazine-7-carbonitrile]	0.6 nM
N#Cc1cc(Nc2nc(NC3CC3)c3ncc(C#N)n3n2)c(Cl)c(N2CCN(C3CN(C(=O)C4CNCCO4)C3)CC2)c1 (stereo not drawn) [Example 489, 2-[(2-chloro-5-cyano-3-{4-[1-(morpholine-2-carbonyl)azetidin-3-yl]piperazin-1-yl}phenyl)amino]-4-(cyclopropylamino)imidazo[2,1-f][1,2,4]triazine-7-carbonitrile]	1.4 nM
CC(C)(O)CC(=O)N1CC(N2CCN(c3cc(C#N)cc(Nc4nc(NC5CC5)c5ncc(C#N)n5n4)c3Cl)CC2)C1 [Example 490, 2-[(2-chloro-5-cyano-3-{4-[1-(3-hydroxy-3-methylbutanoyl)azetidin-3-yl]piperazin-1-yl}phenyl)amino]-4-(cyclopropylamino)imidazo[2,1-f][1,2,4]triazine-7-carbonitrile]	0.94 nM
N#Cc1cc(Nc2nc(NC3CC3)c3ncc(C#N)n3n2)c(Cl)c(N2CCN(C3CN(C(=O)C(F)F)C3)CC2)c1 [Example 491, 2-[(2-chloro-5-cyano-3-{4-[1-(2,2-difluoroacetyl)azetidin-3-yl]piperazin-1-yl}phenyl)amino]-4-(cyclopropylamino)imidazo[2,1-f][1,2,4]triazine-7-carbonitrile]	1.33 nM
CC(=O)NCC(=O)N1CC(N2CCN(c3cc(C#N)cc(Nc4nc(NC5CC5)c5ncc(C#N)n5n4)c3Cl)CC2)C1 [Example 492, N-(2-{3-[4-(2-chloro-5-cyano-3-{[7-cyano-4-(cyclopropylamino)imidazo[2,1-f][1,2,4]triazin-2-yl]amino}phenyl)piperazin-1-yl]azetidin-1-yl}-2-oxoethyl)acetamide]	0.64 nM
N#Cc1cc(Nc2nc(NC3CC3)c3ncc(C#N)n3n2)c(Cl)c(N2CCN(C3CN(C(=O)CN4CCOCC4)C3)CC2)c1 [Example 493, 2-{[2-chloro-5-cyano-3-(4-{1-[2-(morpholin-4-yl)acetyl]azetidin-3-yl}piperazin-1-yl)phenyl]amino}-4-(cyclopropylamino)imidazo[2,1-f][1,2,4]triazine-7-carbonitrile]	2.03 nM
CC(C)(CO)C(=O)N1CC(N2CCN(c3cc(C#N)cc(Nc4nc(NC5CC5)c5ncc(C#N)n5n4)c3Cl)CC2)C1 [Example 494, 2-[(2-chloro-5-cyano-3-{4-[1-(3-hydroxy-2,2-dimethylpropanoyl)azetidin-3-yl]piperazin-1-yl}phenyl)amino]-4-(cyclopropylamino)imidazo[2,1-f][1,2,4]triazine-7-carbonitrile]	1.99 nM
N#Cc1cc(Nc2nc(NC3CC3)c3ncc(C#N)n3n2)c(Cl)c(N2CCN(C3CN(C(=O)CCO)C3)CC2)c1 [Example 495, 2-[(2-chloro-5-cyano-3-{4-[1-(3-hydroxypropanoyl)azetidin-3-yl]piperazin-1-yl}phenyl)amino]-4-(cyclopropylamino)imidazo[2,1-f][1,2,4]triazine-7-carbonitrile]	4.89 nM
N#Cc1cc(Nc2nc(NC3CC3)c3ncc(C#N)n3n2)c(Cl)c(N2CCN(C3CN(C(=O)CCn4ccnc4)C3)CC2)c1 [Example 496, 2-{[2-chloro-5-cyano-3-(4-{1-[3-(1H-imidazol-1-yl)propanoyl]azetidin-3-yl}piperazin-1-yl)phenyl]amino}-4-(cyclopropylamino)imidazo[2,1-f][1,2,4]triazine-7-carbonitrile]	1.82 nM

Second part, the molecule after the results:

IC50	Structure (SMILES)
0.82 nM	COCC(=O)N1CC(N2CCN(c3cc(C#N)cc(Nc4nc(NC5CC5)c5ncc(C#N)n5n4)c3Cl)CC2)C1 [Example 497, 2-[(2-chloro-5-cyano-3-{4-[1-(2-methoxyacetyl)azetidin-3-yl]piperazin-1-yl}phenyl)amino]-4-(cyclopropylamino)imidazo[2,1-f][1,2,4]triazine-7-carbonitrile]
5.48 nM	N#Cc1cc(Nc2nc(NC3CC3)c3ncc(C#N)n3n2)c(Cl)c(N2CCN(C3CN(C(=O)[C@@H]4C[C@@H](O)CN4)C3)CC2)c1 [Example 498, 2-{[2-chloro-5-cyano-3-(4-{1-[(2S,4R)-4-hydroxypyrrolidine-2-carbonyl]azetidin-3-yl}piperazin-1-yl)phenyl]amino}-4-(cyclopropylamino)imidazo[2,1-f][1,2,4]triazine-7-carbonitrile]
3.93 nM	CC(C)(F)C(=O)N1CC(N2CCN(c3cc(C#N)cc(Nc4nc(NC5CC5)c5ncc(C#N)n5n4)c3Cl)CC2)C1 [Example 499, 2-[(2-chloro-5-cyano-3-{4-[1-(2-fluoro-2-methylpropanoyl)azetidin-3-yl]piperazin-1-yl}phenyl)amino]-4-(cyclopropylamino)imidazo[2,1-f][1,2,4]triazine-7-carbonitrile]
3.92 nM	N#Cc1cc(Nc2nc(NC3CC3)c3ncc(C#N)n3n2)c(Cl)c(N2CCN(C3CN(C(=O)C4(N)CC4)C3)CC2)c1 [Example 500, 2-[(3-{4-[1-(1-aminocyclopropanecarbonyl)azetidin-3-yl]piperazin-1-yl}-2-chloro-5-cyanophenyl)amino]-4-(cyclopropylamino)imidazo[2,1-f][1,2,4]triazine-7-carbonitrile]
2.64 nM	CC(C)(N)CC(=O)N1CC(N2CCN(c3cc(C#N)cc(Nc4nc(NC5CC5)c5ncc(C#N)n5n4)c3Cl)CC2)C1 [Example 501, 2-[(3-{4-[1-(3-amino-3-methylbutanoyl)azetidin-3-yl]piperazin-1-yl}-2-chloro-5-cyanophenyl)amino]-4-(cyclopropylamino)imidazo[2,1-f][1,2,4]triazine-7-carbonitrile]
3.27 nM	CC(C)(C)[C@@H](N)C(=O)N1CC(N2CCN(c3cc(C#N)cc(Nc4nc(NC5CC5)c5ncc(C#N)n5n4)c3Cl)CC2)C1 [Example 502, 2-{[3-(4-{1-[(2R)-2-amino-3,3-dimethylbutanoyl]azetidin-3-yl}piperazin-1-yl)-2-chloro-5-cyanophenyl]amino}-4-(cyclopropylamino)imidazo[2,1-f][1,2,4]triazine-7-carbonitrile]
3.67 nM	N#Cc1cc(Nc2nc(NC3CC3)c3ncc(C#N)n3n2)c(Cl)c(N2CCN(C3CN(C(=O)[C@@H]4C[C@H](F)CN4)C3)CC2)c1 [Example 503, 2-{[2-chloro-5-cyano-3-(4-{1-[(2S,4S)-4-fluoropyrrolidine-2-carbonyl]azetidin-3-yl}piperazin-1-yl)phenyl]amino}-4-(cyclopropylamino)imidazo[2,1-f][1,2,4]triazine-7-carbonitrile]
